Experiment [1] deals with human RORγt ligand binding domain (RORγt LBD) (Homo sapiens (Human), UniProt P51449). Briefly: RORγt ThermoFluor® assay (thermal shift binding). To be noted: read-out: ThermoFluor® Assay, Kd. Summed up: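 His-tagged human RORγt LBD (0.065 mg/mL) with 60 μM 1,8-ANS in 100 mM Hepes pH 7.0, 10 mM NaCl, 2.5 mM GSH, 0.002% Tween-20 was heated at 1 °C/min.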
(Differential scanning fluorimetry follows unfolding on heating by fluorescence.)

In experiment [2] the test system is IL-17 production by CD4 T cells. Briefly: Human Th17 assay. It is filed as cell-based. From the text:
The human Th17 assay tests the effect of RORγt modulatory compounds on IL-17 production by CD4 T cells under conditions which favor Th17 differentiation. Total CD4^+ T cells were isolated from the peripheral blood mononuclear cells (PBMC) of healthy donors using a CD4^+ T cell isolation kit II, following the manufacturer's instructions (Miltenyi Biotec). Cells were resuspended in a medium of RPMI-1640 supplemented with 10% fetal bovine serum, penicillin, streptomycin, glutamate, and β-mercaptoethanol and were added to 96-well plates at 1.5×10^5 per 100 μL per well. 50 μL of compound at titrated concentrations in DMSO were added into each well at final DMSO concentration at 0.2%. Cells were incubated for 1 hour, then 50 μL of Th17 cell differentiation medium was added to each well. The final concentrations of antibodies and cytokines (R&D Systems) in differentiation medium were: 3×10^6/mL anti-CD3/CD28 beads (prepared using human T cell activation/expansion kit, Miltenyi Biotec), 10 μg/mL anti-IL4, 10 μg/mL anti-IFNγ, 10 ng/mL IL1β, 10 ng/mL IL23, 50 ng/mL IL6, 3 ng/mL TGFβ and 20 U/mL IL2. Cells were cultured at 37° C. and 5% CO2 for 3 days. Supernatants were collected and the accumulated IL-17 in culture was measured by using MULTI-SPOT® Cytokine Plate following manufacture's instruction (Meso Scale Discovery). The plate was read using Sector Imager 6000, and IL-17 concentration was extrapolated from the standard curve. The IC50s were determined by GraphPad.

[3] abbreviates: read-out: Human Th17 Assay, IC50.
Setting [4] is: read-out: Human Th17 Assay, IC50 (μM).

Molecules are shown by their SMILES. Read-outs that look alike come from different tables or passages of the source.

Sequence of human RORγt ligand binding domain (RORγt LBD) (P51449 other isoform, or with tags, fused parts or gaps): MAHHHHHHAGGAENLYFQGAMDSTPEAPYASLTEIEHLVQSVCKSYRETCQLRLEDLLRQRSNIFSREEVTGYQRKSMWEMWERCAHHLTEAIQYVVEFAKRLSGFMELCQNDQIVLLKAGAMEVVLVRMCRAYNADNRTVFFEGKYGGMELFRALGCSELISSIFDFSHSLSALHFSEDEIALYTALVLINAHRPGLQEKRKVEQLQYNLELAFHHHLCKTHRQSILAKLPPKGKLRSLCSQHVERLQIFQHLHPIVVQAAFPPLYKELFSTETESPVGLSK

As for `C[C@H]1CCCCN1C(=O)c1nc(C(=O)NCC(C)(C)O)sc1-c1cnc(NCC(C)(C)C)cc1C(F)(F)F` [Example 86, (S)—N-(2-Hydroxy-2-methylpropyl)-4-(2-methylpiperidine-1-carbonyl)-5-(6-(neopentylamino)-4-(trifluoromethyl)pyridin-3-yl)thiazole-2-carboxamide], in experiment [1], the Kd worked out at 0.17 nM. Besides, the IC50 in experiment [2] (setting [3]) was found to be 0.0028 µM.
As to `C[C@H](NC(=O)c1nc(C(=O)N2CC(F)(F)C[C@@H]2C)c(-c2cnc(N[C@@H](C)C(F)(F)F)cc2C(F)F)s1)C(C)(C)O` [Example 197], in experiment [1], the Kd amounted to 1.7 nM. Also, the IC50 in experiment [2] (setting [3]) worked out at 0.03 µM.
Turning to `C[C@H]1CCCCN1C(=O)c1nc(C(=O)NCC(C)(C)O)sc1-c1cnc(NC2CCCC2)cc1C(F)F` [Example 41, (S)-5-(6-(Cyclopentylamino)-4-(difluoromethyl)pyridin-3-yl)-N-(2-hydroxy-2-methylpropyl)-4-(2-methylpiperidine-1-carbonyl)thiazole-2-carboxamide], in experiment [1], the dissociation constant (Kd) amounted to 0.74 nM. The half-inhibitory concentration (IC50) in experiment [2] (setting [3]) amounted to 0.043 µM.
Regarding `C[C@H](Nc1cc(C(F)(F)F)c(-c2sc(C(=O)NCC(C)(C)O)nc2C(=O)N2CCC[C@@H]2C)cn1)C(F)(F)F` [Example 78, N-(2-Hydroxy-2-methylpropyl)-4-((S)-2-methylpyrrolidine-1-carbonyl)-5-(4-(trifluoromethyl)-6-(((S)-1,1,1-trifluoropropan-2-yl)amino)pyridin-3-yl)thiazole-2-carboxamide], the Kd in experiment [1] was determined as 3.2 nM. For the same molecule, the IC50 in experiment [2] (setting [3]) amounted to 0.014 µM.
On the same counts, the results for `C[C@H](Nc1cc(C(F)(F)F)c(-c2sc(C(=O)NCC(C)(C)O)nc2C(=O)N2CCCC[C@@H]2C)cn1)C(F)(F)F` [Example 47, N-(2-Hydroxy-2-methylpropyl)-4-((S)-2-methylpiperidine-1-carbonyl)-5-(4-(trifluoromethyl)-6-(((S)-1,1,1-trifluoropropan-2-yl)amino)pyridin-3-yl)thiazole-2-carboxamide] are 0.5 nM and 0.0098 µM.
For the molecule `C[C@H]1CC(F)(F)CN1C(=O)c1nc(C(=O)NCC(C)(C)O)sc1-c1cnc(NC2(C(F)(F)F)CCC2)cc1C(F)F` [Example 124, (S)-4-(4,4-Difluoro-2-methylpyrrolidine-1-carbonyl)-5-(4-(difluoromethyl)-6-((1-(trifluoromethyl)cyclobutyl)amino)pyridin-3-yl)-N-(2-hydroxy-2-methylpropyl)thiazole-2-carboxamide], the Kd in experiment [1] was determined as 0.52 nM. For the same molecule, the IC50 in experiment [2] (setting [3]) was 0.0067 µM.
For the molecule `C[C@H](Nc1cc(C(F)F)c(-c2sc(C(=O)NCC(C)(C)O)nc2C(=O)N2CCCC[C@@H]2C)cn1)C1CC1` [Example 37, 5-(6-(((S)-1-Cyclopropylethyl)amino)-4-(difluoromethyl)pyridin-3-yl)-N-(2-hydroxy-2-methylpropyl)-4-((S)-2-methylpiperidine-1-carbonyl)thiazole-2-carboxamide], the Kd in experiment [1] came to 0.65 nM. Besides, in experiment [2] (setting [3]), the IC50 came out at 0.052 µM.
Take `CC(C)(O)CNC(=O)c1nc(C(=O)N2C3CCC2CC3)c(-c2cnc(NC3(C)CCC3)cc2C(F)(F)F)s1` [Example 140, 4-((1s,4s)-7-Azabicyclo[2.2.1]heptane-7-carbonyl)-N-(2-hydroxy-2-methylpropyl)-5-(6-((1-methylcyclobutyl)amino)-4-(trifluoromethyl)pyridin-3-yl)thiazole-2-carboxamide]: the Kd in experiment [1] is 1.7 nM. Also, the IC50 in experiment [2] (setting [4]) is 0.011 µM.
The matching figures for `C[C@H](Nc1cc(C(F)(F)F)c(-c2sc(C(=O)NCC(C)(C)O)nc2C(=O)N2C3CCC2CC3)cn1)C1CC1` [Example 51, 4-((1s,4s)-7-Azabicyclo[2.2.1]heptane-7-carbonyl)-5-(6-(((S)-1-cyclopropylethyl)amino)-4-(trifluoromethyl)pyridin-3-yl)-N-(2-hydroxy-2-methylpropyl)thiazole-2-carboxamide]: 3.2 nM and 0.021 µM.
Consider `C[C@H]1CCCN1C(=O)c1nc(C(=O)NC[C@@H](O)C(C)(C)O)sc1-c1cnc(NC(C)(C)C)cc1C(F)(F)F` (single isomer, unassigned) [Example 243, 5-(6-(tert-Butylamino)-4-(trifluoromethyl)pyridin-3-yl)-N—((R*)-2,3-dihydroxy-3-methylbutyl)-4-((S)-2-methylpyrrolidine-1-carbonyl)thiazole-2-carboxamide], for which the Kd in experiment [1] was found to be 7.3 nM. Moreover, the IC50 in experiment [2] (setting [3]) is 0.063 µM.
For the molecule `CC[C@H](Nc1cc(C(F)(F)F)c(-c2sc(C(=O)NCC(C)(C)O)nc2C(=O)N2CCC[C@@H]2C)cn1)C(F)(F)F` [Example 111, N-(2-Hydroxy-2-methylpropyl)-4-((S)-2-methylpyrrolidine-1-carbonyl)-5-(6-(((S)-1,1,1-trifluorobutan-2-yl)amino)-4-(trifluoromethyl)pyridin-3-yl)thiazole-2-carboxamide], the Kd in experiment [1] amounted to 1.8 nM. Besides, the IC50 in experiment [2] (setting [3]) amounted to 0.017 µM.
Take `CC(C)(C)CNc1cc(C(F)F)c(-c2sc(C(=O)NCC(C)(C)O)nc2C(=O)N2C3CCC2CC3)cn1` [Example 116, 4-((1s,4s)-7-Azabicyclo[2.2.1]heptane-7-carbonyl)-5-(4-(difluoromethyl)-6-(neopentylamino)pyridin-3-yl)-N-(2-hydroxy-2-methylpropyl)thiazole-2-carboxamide]: the Kd in experiment [1] came out at 3.6 nM. Further, the IC50 in experiment [2] (setting [4]) worked out at 0.044 µM.
For the molecule `C[C@H]1CC(F)(F)CN1C(=O)c1nc(C(=O)NCC(C)(C)O)sc1-c1cnc(NC2(C)CCC2)cc1C(F)(F)F` [Example 141, (S)-4-(4,4-Difluoro-2-methylpyrrolidine-1-carbonyl)-N-(2-hydroxy-2-methylpropyl)-5-(6-((1-methylcyclobutyl)amino)-4-(trifluoromethyl)pyridin-3-yl)thiazole-2-carboxamide], the Kd in experiment [1] was found to be 0.68 nM. The IC50 in experiment [2] (setting [3]) was 0.0055 µM.
In the case of `O=C(N[C@H]1C[C@H](O)C1)c1nc(C(=O)N2C3CCC2CC3)c(-c2cnc(N[C@@H](C3CC3)C(F)(F)F)cc2C(F)F)s1` [Example 318, 4-((1s,4s)-7-Azabicyclo[2.2.1]heptane-7-carbonyl)-5-(6-(((S)-1-cyclopropyl-2,2,2-trifluoroethyl)amino)-4-(difluoromethyl)pyridin-3-yl)-N-((1r,3S)-3-hydroxycyclobutyl)thiazole-2-carboxamide], the Kd in experiment [1] stood at 8.1 nM. In experiment [2] (setting [3]), the half-inhibitory concentration (IC50) came to 0.017 µM.
Take `C[C@H](Nc1cc(C(F)(F)F)c(-c2sc(C(=O)NCC(C)(C)O)nc2C(=O)N2CCC[C@@H]2C)cn1)C1CC1` [Example 40, 5-(6-(((S)-1-Cyclopropylethyl)amino)-4-(trifluoromethyl)pyridin-3-yl)-N-(2-hydroxy-2-methylpropyl)-4-((S)-2-methylpyrrolidine-1-carbonyl)thiazole-2-carboxamide]: in experiment [1], the Kd stood at 2.8 nM. The IC50 in experiment [2] (setting [3]) was determined as 0.056 µM.
Regarding `C[C@H]1CCCN1C(=O)c1nc(C(=O)NCC(C)(C)O)sc1-c1cnc(NC(C)(C)C)cc1C(F)(F)F` [Example 52, (S)-5-(6-(tert-Butylamino)-4-(trifluoromethyl)pyridin-3-yl)-N-(2-hydroxy-2-methylpropyl)-4-(2-methylpyrrolidine-1-carbonyl)thiazole-2-carboxamide], in experiment [1], the Kd is 1.2 nM. The IC50 in experiment [2] (setting [3]) stood at 0.01 µM.
For the molecule `C[C@H](Nc1cc(C(F)(F)F)c(-c2sc(C(=O)NCC(C)(C)O)nc2C(=O)N2CC(F)(F)C[C@@H]2C)cn1)C1CC1` [Example 142, 5-(6-(((S)-1-Cyclopropylethyl)amino)-4-(trifluormethyl)pyridin-3-yl)-4-((S)-4,4-difluoro-2-methylpyrrolidine-1-carbonyl)-N-(2-hydroxy-2-methylpropyl)thiazole-2-carboxamide], the Kd in experiment [1] was 1.4 nM. The IC50 in experiment [2] (setting [3]) amounted to 0.019 µM.
On to `C[C@H](Nc1cc(C(F)F)c(-c2sc(C(=O)NCC(C)(C)O)nc2C(=O)N2CCCC[C@@H]2C)cn1)C(F)(F)F` [Example 144], for which the Kd in experiment [1] came out at 1.5 nM. In experiment [2] (setting [3]), the IC50 was 0.013 µM.
The matching figures for `C[C@H](Nc1cc(C(F)F)c(-c2sc(C(=O)NCC(C)(C)O)nc2C(=O)N2CC(F)(F)C[C@@H]2C)cn1)C(F)(F)F` [Example 135]: 3.5 nM and 0.044 µM.
As for `C[C@H]1CCCN1C(=O)c1nc(C(=O)NCC(C)(C)O)sc1-c1cnc(NCC(C)(C)C)cc1C(F)(F)F` [Example 87, (S)—N-(2-Hydroxy-2-methylpropyl)-4-(2-methylpyrrolidine-1-carbonyl)-5-(6-(neopentylamino)-4-(trifluoromethyl)pyridin-3-yl)thiazole-2-carboxamide], in experiment [1], the Kd came out at 1.3 nM. In experiment [2] (setting [3]), the IC50 was 0.025 µM.

One may read the Kd as the equilibrium constant for the complex coming apart. What is called IC50 is the concentration that inhibits the measured activity by half.

For the origin of these results see patent US10975068B2, “6-aminopyridin-3-yl thiazoles as modulators of RORγT” (Janssen Pharmaceutica NV, priority 2016, dated 2021).
